From PMC9332470, “Production and Selection of Antibody–Antigen Pairs for the Development of Immunoenzyme Assay and Lateral Flow Immunoassay Methods for Carbofuran and Its Analogues” (Biosensors, 2022)
In brackets after ≈: the same amount, converted by molar mass.

How the values were obtained:
mAb 6D6 = assay: ELISA reactivity of hybridoma supernatant, cell line 6D6; type: binding, BALB/c mice; settings: cell line 6D6 supernatant, 50 ng/mL pesticide
Experimental: (§1) The desired antibodies with the highest affinity were screened by icELISA with carbofuran as a competitive compound, and hybridoma cells were cloned by the limited dilution method. Then, the selected hybridoma cells were injected into mice for ascites production. Finally, the mAbs were purified by (NH4)2SO4 with saturation of 50% and further purified by an SPA column.
(§2) Microplates were coated with coating antigens. Different concentrations of the standard (50 µL) and the mAb (50 µL) were added to each well, and the plates were incubated for 20 min at 37 °C. The plates were washed with PBS (0.01 M, containing 0.05% (v/v) Triton X-100), 100 μL of goat anti-mouse IgG-HRP conjugate solution was added to each well, and the plates were incubated for 20 min at 37 °C. After the plates were washed with PBS (0.01 M, containing 0.05% Triton X-100, v/v), 100 µL of TMB single-component substrate solution was added to each well, followed by incubation at 37 °C for 10 min. Finally, the reaction was terminated, and the absorbance at 450 nm was measured by a microplate reader.
(§3) The inhibition ratio (I%) was calculated as (B0-B)/B0 × 100%. IC50 is the concentration of the carbofuran at an I% of 50%, and the limit of detection (LOD) was determined as the concentration showing 10% of inhibition.
(§4) Then, the reactivity of the supernatant of the six cell lines to 50 ng/mL carbofuran, benfuracarb and carbosulfan was assessed by ELISA, and the results are shown in Table 1. […] Because 13C8 had the highest reactivity with carbofuran, benfuracarb and carbosulfan among the six cell lines, it was injected into mice for ascites production, and the mAbs were purified by a protein A column for further experiments.

mAb 13C8 [1] = assay: indirect competitive ELISA (icELISA) with mAb 13C8; type: binding, BALB/c mice
Experimental: as §2
Taking the logarithm of the carbofuran concentration as the abscissa and (B/B0)% as the ordinate, the standard curves for ELISA and QD-LFIA were obtained based on the Morgan–Mercer–Flodin (MMF) model, which were fitted by CurveExpert 1.4.0 software (https://www.curveexpert.net, accessed on 15 July 2022). For the ELISA method, B and B0 are the absorbance of the sample well and blank well, respectively. For the QD-LFIA method, B and B0 are the T/C (fluorescence intensity of the test line/fluorescence intensity of the control line) of the sample and blank control, respectively.
as §3
The cross-reactivities (CRs) of benfuracarb, carbosulfan, 3-hydroxy-carbofuran, metolcarb, carbaryl, isoprocarb and aldicarb with carbofuran were assessed by ELISA and QD-LFIA. CR was calculated as CR (%) = [IC50 (carbofuran)/IC50 (analogues)] × 100%.
The microplate was coated with the coating antigens DDB-BSA (1 µg/mL), DDB-OVA (0.5 µg/mL), MDA-BSA (0.2 µg/mL) and MDA-OVA (0.1 µg/mL), and the concentration of mAb 13C8 was 0.03 µg/mL. Carbofuran standards (0, 0.05, 0.15, 0.45, 1.35 and 4.05 ng/mL) were detected to obtain a standard curve, and the IC50 was calculated. […] In the icELISA used in this study, free antigen (carbofuran) in solution competed with the coating antigen on the microplate for antibody 13C8; therefore, the IC50 value was negatively correlated with the antibody-binding ability of free antigen competing with coating antigens.
The ELISA method was developed with the antibody 13C8–antigen MDA-BSA pair. Under the optimized coating antigen concentration (0.1 μg/mL), HRP-conjugated goat anti-mouse IgG concentration (1 μg/mL), antibody concentration (0.03 μg/mL) and working buffer parameters (5 mM PBS at pH 7.4), a standard curve was obtained with the concentration of carbofuran on the abscissa and the inhibition ratio (B/B0) on the ordinate.

[2] = test system: sol–gel-entrapped antibody; settings: label-free electrochemical immunosensor; cited from earlier work
mAb 13C8 [3] = assay: ELISA reactivity of hybridoma supernatant, cell line 13C8; type: binding, BALB/c mice; settings: cell line 13C8 supernatant, 50 ng/mL pesticide
Experimental: as §1, §2, §3, §4

mAb 12D6 = assay: ELISA reactivity of hybridoma supernatant, cell line 12D6; type: binding, BALB/c mice; settings: cell line 12D6 supernatant, 50 ng/mL pesticide
Experimental: as §1, §2, §3, §4

[4] = test system: broad-specificity mAb with the immunogen BFNB-BSA; settings: cited from earlier work
mAb 12H5 = assay: ELISA reactivity of hybridoma supernatant, cell line 12H5; type: binding, BALB/c mice; settings: cell line 12H5 supernatant, 50 ng/mL pesticide
Experimental: as §1, §2, §3, §4

[5] = test system: specific antibody against carbofuran; settings: cited from earlier work
mAb 13C8 [6] = assay: colloidal gold-based LFIA with mAb 13C8; type: binding, BALB/c mice
Experimental: Ten milliliters of colloidal gold solution was adjusted to pH 8.0 with K2CO3 (0.1 M) at room temperature, and then 60 μg of the antibody was added. After mixing for 30 min at room temperature, 200 μL of 20% (w/v) BSA was added to block the free colloidal gold for 20 min at room temperature. Then, the mixture was centrifuged at 15,777× g for 30 min at 4 °C. Finally, the precipitate was resuspended in 2000 μL of PBS (0.005 M at pH 8.2, containing 10% BSA, 2% glucose, 0.5% alanine, 5% PEG2000 and 0.1% NaN3, w/v) and stored at 4 °C.
An immunochromatographic test strip consisted of a sample pad, a conjugate pad, a nitrocellulose (NC) membrane and an absorbent pad. The mAb–colloidal gold conjugates (700 μL) were sprayed onto the conjugate pad (6 mm × 300 mm) and then dried under vacuum for 20 h at room temperature. DDB-OVA (50 μg/mL) or MDA-OVA (30 μg/mL) and goat anti-mouse IgG antibodies were dispensed on the NC membrane at a rate of 1 μL/cm as the test line (T line) and control line (C line), respectively. The NC membrane was then dried at 37 °C for 3 h. The sample pads, conjugate pads, NC membranes and absorbent pads were attached to the PVC plastic support, and then the assembled plate was cut to obtain 4 mm test strips and placed in a rigid plastic cassette.
We also dispensed DDB-OVA (50 μg/mL) and MDA-OVA (30 μg/mL) onto the NC membrane and labeled antibody 13C8 with colloidal gold to prepare colloidal gold LFIA test strips.

mAb 18G3 = assay: ELISA reactivity of hybridoma supernatant, cell line 18G3; type: binding, BALB/c mice; settings: cell line 18G3 supernatant, 50 ng/mL pesticide
Experimental: as §1, §2, §3, §4

**Q.** With `CNC(=O)Oc1cccc2c1OC(C)(C)C2` [carbofuran] as the compound, how does the “Reactivity of mAb (I%)” value (mAb 6D6) read?
**A.** 86%

**Q.** And the “CR (%) (ELISA)” value (mAb 13C8 [1]; CR = IC50(carbofuran)/IC50(analogue) x 100%, optimized ELISA with mAb 13C8)?
**A.** 100.0%

**Q.** What about the “IC50 (ELISA)” value (mAb 13C8 [1]; antibody 13C8, coating antigen DDB-BSA (1 µg/mL)) of the same compound?
**A.** 0.19 ± 0.01 ng/mL (≈ 0.859 nM)

**Q.** What about the “IC50 (ELISA)” value (mAb 13C8 [1]; antibody 13C8, coating antigen DDB-OVA (0.5 µg/mL)) of the same compound?
**A.** 0.22 ± 0.02 ng/mL (≈ 0.994 nM)

**Q.** What about the “IC50 (ELISA)” value (mAb 13C8 [1]; antibody 13C8, coating antigen MDA-BSA (0.2 µg/mL)) of the same compound?
**A.** 0.20 ± 0.02 ng/mL (≈ 0.904 nM)

**Q.** And the “IC50 (ELISA)” value (mAb 13C8 [1]; antibody 13C8, coating antigen MDA-OVA (0.1 µg/mL))?
**A.** 0.17 ± 0.01 ng/mL (≈ 0.768 nM)

**Q.** And the “detection limit (ELISA)” value (mAb 13C8 [1]; concentration showing 10% of inhibition, optimized ELISA)?
**A.** 0.02 ng/mL

**Q.** And the “working range (ELISA)” value (mAb 13C8 [1]; optimized ELISA)?
**A.** 0.02 to 2.09 ng/mL

**Q.** And the “IC50 (ELISA)” value (mAb 13C8 [1]; optimized ELISA, mAb 13C8 0.03 μg/mL, coating antigen 0.1 μg/mL, given as MDA-BSA and MDA-OVA, unit from text)?
**A.** 0.18 ± 0.03 ng/mL (≈ 0.814 nM)

**Q.** What about the detection limit [2] of the same compound?
**A.** 0.33 ng/mL

**Q.** And the “Reactivity of mAb (I%)” value (mAb 13C8 [3])?
**A.** 95%

**Q.** What about the “Reactivity of mAb (I%)” value (mAb 12D6) of the same compound?
**A.** 84%

**Q.** What about the “CR(%) (ic-ELISA)” value [4] of the same compound?
**A.** 100.0%

**Q.** And the “IC50 (ic-ELISA)” value [4]?
**A.** 8.97 ng/mL (≈ 40.5 nM)

**Q.** And the “Reactivity of mAb (I%)” value (mAb 12H5)?
**A.** 78%

**Q.** What about the “IC50 (direct competitive ELISA)” value [5] of the same compound?
**A.** 1.3 ng/mL (≈ 5.88 nM)

**Q.** What about the “cut-off (colloidal gold LFIA)” value (mAb 13C8 [6]; heterologous coating antigen MDA-OVA (30 μg/mL)) of the same compound?
**A.** 3 ng/mL

**Q.** And the “change of T line versus 0 ng/mL” value (mAb 13C8 [6]; heterologous coating antigen MDA-OVA, 1 ng/mL carbofuran)?
**A.** significantly lighter

**Q.** And the “change of T line versus 0 ng/mL” value (mAb 13C8 [6]; homologous coating antigen DDB-OVA, 1000 ng/mL carbofuran)?
**A.** almost no change

**Q.** And the “Reactivity of mAb (I%)” value (mAb 18G3)?
**A.** 86%
